Publication PMC5598150 (Toxicology Reports, 2015)

Experiments:
[1] = tested on: human neuroblastoma SK-N-SH cells; assay: MTT assay of cell viability in SK-N-SH neuroblastoma cells; assay type: cell-based
[2] = tested on: primary rat cortical neurons; assay: Live and Dead cell staining of primary neuronal cultures; assay type: cell-based; conditions: 24 h
[3] = partition coefficient between octanol and water; cited from earlier work
rat = conditions: ref Hazardous Substances Data Bank (HSDB); cited from earlier work
primary cultured cells = conditions: cited from earlier work

| Structure (SMILES) | IC50 ([1]; Homo sapiens, SK-N-SH, 24 h) [µM] | Survival of primary cultured neurons ([2]; 0.5 mM) | log Pow [3] | LD50 rat (intraperitoneal) (rat) [mg/kg] | Survival of primary cultured neurons ([2]; 1 mM) | Concentration causing the death of all primary cultured cells (primary cultured cells) [µM] | IC50 ([1]; SK-N-SH cells, MTT assay, 24 h exposure) [µM] |
| --- | --- | --- | --- | --- | --- | --- | --- |
| CCCCC(CC)CO (centres unmarked) [2-Ethyl-1-hexanol] | 15.1 | almost all of the primary cultured neurons died | 2.73 | 500 | – | – | – |
| C=CC(C)(O)CCC=C(C)C (centres unmarked) [Linalool] | 1330 | – | – | 307 | almost all of the cells in culture dishes died | – | – |
| CCCCCCCCC=O [Nonanal] | 8.31 | almost all of the primary cultured neurons died | 3.27 | – | – | – | – |
| OCCc1ccccc1 [Phenethyl alcohol] | 2390 | – | – | – | almost all of the cells in culture dishes survived | – | – |
| Cc1ccccc1 [Toluene, reference compound] | 850 | – | – | 1332 | – | 2000 | – |
| CC/C=C\CCO [cis-3-Hexen-1-ol] | 2300 | – | – | – | almost all of the cells in culture dishes died | – | – |
| CCCCCCCC=O [n-Octanal] | 37.2 | almost all of the primary cultured neurons died | 2.78 | – | – | – | – |
| CCCO [n-Propyl alcohol] | – | – | – | 164 | almost all of the cells in culture dishes survived | – | > 5000 |
